Source: ChEMBL document CHEMBL1150995, “DNA cleavage by photoexcited diazoarenes” (Bioorg Med Chem Lett, 1997)

How the values were obtained:
[1] = Inhibitory effect of DABCO (0.2 M) on light induced nuclease activity was determined
[2] = Inhibitory effect of 2-Propanol (100 uM) on light induced nuclease activity was determined
[3] = Inhibitory effect of DMSO (0.2 M) on light induced nuclease activity was determined
[4] = Inhibitory effect of SOD (100 ng) on light induced nuclease activity was determined
[5] = Inhibitory effect of cumene (100 uM) on light induced nuclease activity was determined
[6] = Inhibitory effect of triphenylphosphine (100 uM) on light induced nuclease activity was determined
[7] = Inhibitory effect of D2O on light induced nuclease activity was determined; conditions: concentration not given here
[8] = Inhibitory effect of Mannitol (100 mM) on light induced nuclease activity was determined

| inhibition [1] | inhibition [2] | inhibition [3] | inhibition [4] | inhibition [5] | inhibition [6] | inhibition [7] | inhibition [8] | Compound |
| --- | --- | --- | --- | --- | --- | --- | --- | --- |
| 38% | 30% | 5% | 8% | 58% | 35% | 8% | 3% | [N-]=[N+]=c1c2ccccc2oc2ccccc12 |
| 30% | 25% | 12% | 10% | 39% | 35% | 10% | 5% | [N-]=[N+]=C1c2ccccc2C(=O)c2ccccc21 |
